In article PMC3645702, “Protein Tyrosine Nitration and Thiol Oxidation by Peroxynitrite—Strategies to Prevent These Oxidative Modifications” (International Journal of Molecular Sciences, 2013):

Key:
[1] = molecular target: T1, alcohol dehydrogenase (ADH) (Saccharomyces cerevisiae, UniProt P00330); assay: NADH formation at […] nm; type: biochemical
T1 construct: gene ADH1
T1 sequence (P00330 2-348): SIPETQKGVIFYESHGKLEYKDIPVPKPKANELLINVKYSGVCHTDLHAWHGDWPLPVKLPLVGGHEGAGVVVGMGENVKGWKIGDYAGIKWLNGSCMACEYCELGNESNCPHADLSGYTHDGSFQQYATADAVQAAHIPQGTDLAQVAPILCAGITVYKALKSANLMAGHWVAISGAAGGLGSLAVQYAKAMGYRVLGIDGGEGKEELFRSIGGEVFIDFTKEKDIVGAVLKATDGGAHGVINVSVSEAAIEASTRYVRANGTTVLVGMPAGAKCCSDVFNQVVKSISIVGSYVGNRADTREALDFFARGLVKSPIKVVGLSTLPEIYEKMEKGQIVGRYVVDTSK

[2] = molecular target: T2, human prostacyclin synthase (PGIS), microsomal, partially purified (Homo sapiens, UniProt Q16647); assay: 3-nitrotyrosine formation, Western blot and HPLC after pronase; type: biochemical
T2 construct: gene PTGIS; overexpressed in Sf21 insect cells
T2 sequence (Q16647 1-500): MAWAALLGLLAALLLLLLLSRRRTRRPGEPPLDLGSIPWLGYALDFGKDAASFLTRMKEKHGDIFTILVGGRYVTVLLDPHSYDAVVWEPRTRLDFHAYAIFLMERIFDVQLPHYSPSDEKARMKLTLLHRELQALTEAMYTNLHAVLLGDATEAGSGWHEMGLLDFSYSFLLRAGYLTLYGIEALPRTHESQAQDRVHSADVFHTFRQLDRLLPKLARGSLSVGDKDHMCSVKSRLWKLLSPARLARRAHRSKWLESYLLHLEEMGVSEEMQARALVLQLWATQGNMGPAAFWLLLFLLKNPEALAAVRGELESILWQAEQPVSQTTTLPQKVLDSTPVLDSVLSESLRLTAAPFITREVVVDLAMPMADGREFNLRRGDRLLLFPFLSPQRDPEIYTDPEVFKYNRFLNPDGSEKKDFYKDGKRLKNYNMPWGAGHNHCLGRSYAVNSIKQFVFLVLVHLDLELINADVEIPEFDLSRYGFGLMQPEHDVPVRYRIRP
Text: 3-nitrotyrosine formation, Western blot and HPLC after pronase on human prostacyclin synthase (PGIS), microsomal, partially purified | peroxynitrite-dependent nitration of an over-expressed and partially purified human prostacyclin synthase

inhibition at 50 µM [1]	EC50 [2]	SMILES
20%		S=c1cc[nH]c(=S)[nH]1 [2,6-Dithiopyrimidine]
	5 µM	O=NOO [peroxynitrite]
20%		S=c1[nH]c(=S)c2[nH]cnc2[nH]1 [2,6-Dithiopurine]
